Read-outs that look alike come from different tables or passages of the source.

The target in this assay is V1 receptor (Rattus norvegicus, UniProt P30560). Kind of assay: biochemical. In kind it is binding.
Setting [1] is: [H]3-Arg-vasopressin 2×10^-10 M, rat liver plasma membrane, 37° C., 10 minutes, pH 8.0, read-out: IC50.

V1 receptor, sequence (P30560 whole entry): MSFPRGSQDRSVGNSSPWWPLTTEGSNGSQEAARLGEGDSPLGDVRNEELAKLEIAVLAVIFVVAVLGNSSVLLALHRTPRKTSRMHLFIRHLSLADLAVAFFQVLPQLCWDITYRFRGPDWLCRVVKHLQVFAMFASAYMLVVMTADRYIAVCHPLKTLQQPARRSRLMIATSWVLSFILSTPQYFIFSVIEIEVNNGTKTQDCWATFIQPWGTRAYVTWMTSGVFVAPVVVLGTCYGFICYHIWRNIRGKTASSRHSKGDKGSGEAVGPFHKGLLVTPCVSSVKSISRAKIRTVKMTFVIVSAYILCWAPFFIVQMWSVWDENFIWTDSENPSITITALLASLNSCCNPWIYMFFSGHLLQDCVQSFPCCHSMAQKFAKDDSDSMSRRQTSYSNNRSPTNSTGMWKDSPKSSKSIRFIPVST

Usually IC50 stands for the concentration at which inhibition is half-maximal. Take “1-[1-(4-Propargylbenzoyl)-4-piperidinyl]-3,4-dihydrocarbostyril [Example 96]”: the IC50 under setting [1] was 600 nM.
Still for that read-out and setting: the same measure for “1-{1-[4-(6-(1-Methyl-5-oxo-3-morpholino)hexyloxy)benzoyl]-4-piperidinyl}-3,4-dihydrocarbostyril [Example 215]”: 170 nM; for “1-{1-[4-[4-(Benzimidazol-1-yl)thiobutoxy]benzoyl]-4-piperidinyl}-3,4-dihydrocarbostyril [Example 164]”: 780 nM.
As to `NC(=O)CCCCOc1ccc(C(=O)N2CCC(N3C(=O)CCc4ccccc43)CC2)cc1` [Example 3, 1-{1-[4-(4-Carbamoylbutoxy)benzoyl]-4-piperidinyl}-3,4-dihydrocarbostyril], the IC50 amounted to 330 nM.
As for `NC(=O)CNC(=O)CCCCOc1ccc(C(=O)N2CCC(N3C(=O)CCc4ccccc43)CC2)cc1` [Example 4, 1-{1-[4-(4-Carbamoylmethylaminocarbonylbutoxy)benzoyl]-4-piperidinyl}-3,4-dihydrocarbostyril], the concentration for half-maximal inhibition (IC50) is 240 nM.
The same measure, in the same setting: the same measure for `N#CCCCOc1ccc(C(=O)N2CCC(N3C(=O)CCc4ccccc43)CC2)cc1` [Example 5, 1-{1-[4-(3-Cyanopropoxy)benzoyl]-4-piperidinyl}-3,4-dihydrocarbostyril]: 490 nM; for `N=C(N)CCCOc1ccc(C(=O)N2CCC(N3C(=O)CCc4ccccc43)CC2)cc1` [Example 6, 1-{1-[4-(3-Amidinopropoxy)benzoyl]-4-piperidinyl}-3,4-dihydrocarbostyril]: 470 nM.
The same measure, in the same setting: next, `NC(=O)CCCOc1ccc(C(=O)N2CCC(N3C(=O)CCc4ccccc43)CC2)cc1` [Example 7, 1-{1-[4-(3-Carbamoylpropoxy)benzoyl]-4-piperidinyl}-3,4-dihydrocarbostyril]: 310 nM; `CCOC(=O)CNC(=O)CCCOc1ccc(C(=O)N2CCC(N3C(=O)CCc4ccccc43)CC2)cc1` [Example 8, 1-{1-[4-(3-Ethoxycarbonylmethylaminocarbonylpropoxy)benzoyl]-4-piperidinyl}-3,4-dihydrocarbostyril]: 300 nM.
Still for that read-out and setting: the same measure for `NC(=O)CNC(=O)CCCOc1ccc(C(=O)N2CCC(N3C(=O)CCc4ccccc43)CC2)cc1` [Example 9, 1-{1-[4-(3-Carbamoylmethylaminocarbonylpropoxy)benzoyl]-4-piperidinyl}-3,4-dihydrocarbostyril]: 350 nM; for `COC(=O)[C@H](CO)NC(=O)CCCOc1ccc(C(=O)N2CCC(N3C(=O)CCc4ccccc43)CC2)cc1` [Example 10, Methyl N-[4-{4-[4-(1,2,3,4-tetrahydro-2-oxo-1-quinolyl)-1-piperidinylcarbonyl]phenoxy}]butanoyl-L-serinate]: 320 nM.
In turn, `COC(=O)[C@H](C)NC(=O)CCCOc1ccc(C(=O)N2CCC(N3C(=O)CCc4ccccc43)CC2)cc1` [Example 11, Methyl N-[4-{4-[4-(1,2,3,4-tetrahydro-2-oxo-1-quinolyl)-1-piperidinylcarbonyl]phenoxy}]butanoyl-L-alanate] came in with an IC50 of 300 nM.
In the case of `NC(=O)CCCCCOc1ccc(C(=O)N2CCC(N3C(=O)CCc4ccccc43)CC2)cc1` [Example 12, 1-{1-[4-(5-Carbamoylpentyloxy)benzoyl]-4-piperidinyl}-3,4-dihydrocarbostyril], it took 230 nM to reach half-maximal inhibition (IC50).
On the same count and under the same terms, next, `CCOC(=O)CNC(=O)CCCCCOc1ccc(C(=O)N2CCC(N3C(=O)CCc4ccccc43)CC2)cc1` [Example 13, 1-{1-[4-(5-Ethoxycarbonylmethylaminocarbonylpentyloxy)benzoyl]-4-piperidinyl}-3,4-dihydrocarbostyril]: 280 nM.
On the same count and under the same terms, next, `NC(=O)CNC(=O)CCCCCOc1ccc(C(=O)N2CCC(N3C(=O)CCc4ccccc43)CC2)cc1` [Example 14, 1-{1-[4-(5-Carbamoylmethylaminocarbonylpentyloxy)benzoyl]-4-piperidinyl}-3,4-dihydrocarbostyril]: 160 nM; `NC(=O)CCCCCCCOc1ccc(C(=O)N2CCC(N3C(=O)CCc4ccccc43)CC2)cc1` [Example 15, 1-{1-[4-(7-Carbamoylheptyloxy)benzoyl]-4-piperidinyl}-3,4-dihydrocarbostyril]: 260 nM; `NC(=O)CNC(=O)CCCCCCCOc1ccc(C(=O)N2CCC(N3C(=O)CCc4ccccc43)CC2)cc1` [Example 16, 1-(1-[4-(7-Carbamoylmethylaminocarbonylheptyloxy)benzoyl]-4-piperidinyl}-3,4-dihydrocarbostyril]: 150 nM.
Same read-out and setting: the same measure for `CN(C)CCCOc1ccc(C(=O)N2CCC(N3C(=O)CCc4ccccc43)CC2)cc1` [Example 17, 1-{1-[4-(3-Dimethylaminopropoxy)benzoyl]-4-piperidinyl}-3,4-dihydrocarbostyril]: 430 nM.
As to `O=C(c1ccc(OCCCNCc2ccccc2)cc1)N1CCC(N2C(=O)CCc3ccccc32)CC1` [Example 18, 1-{1-[4-(3-Benzylaminopropoxy)benzoyl]-4-piperidinyl}-3,4-dihydrocarbostyril], the IC50 was found to be 270 nM.
As to `CS(=O)(=O)NCCCOc1ccc(C(=O)N2CCC(N3C(=O)CCc4ccccc43)CC2)cc1` [Example 22, 1-{1-[4-(3-Methylsulfonylaminopropoxy)benzoyl]-4-piperidinyl}-3,4-dihydrocarbostyril], the 50% inhibitory concentration (IC50) was 340 nM.
Still for that read-out and setting: the same measure for `CNC(=O)NCCCOc1ccc(C(=O)N2CCC(N3C(=O)CCc4ccccc43)CC2)cc1` [Example 23, 1-[1-{4-[3-(3-Methylureido)propoxy]benzoyl}-4-piperidinyl]-3,4-dihydrocarbostyril]: 240 nM; for `CC(=O)NCC(=O)NCCCCOc1ccc(C(=O)N2CCC(N3C(=O)CCc4ccccc43)CC2)cc1` [Example 25]: 240 nM.
Same read-out and setting: next, `COC(=O)NCCCCOc1ccc(C(=O)N2CCC(N3C(=O)CCc4ccccc43)CC2)cc1` [Example 27, 1-{1-[4-(4-Methoxycarbonylaminobutoxy)benzoyl]-4-piperidinyl}-3,4-dihydrocarbostyril]: 270 nM.
Same read-out and setting: the same measure for `CS(=O)(=O)NCCCCOc1ccc(C(=O)N2CCC(N3C(=O)CCc4ccccc43)CC2)cc1` [Example 28, 1-{1-[4-(4-Methylsulfonylaminobutoxy)benzoyl]-4-piperidinyl}-3,4-dihydrocarbostyril]: 160 nM; for `CNCC(O)CCCOc1ccc(C(=O)N2CCC(N3C(=O)CCc4ccccc43)CC2)cc1` (stereo not shown) [Example 30, 1-{1-[4-(5-Methylamino-4-hydroxypentyloxy)benzoyl]-4-piperidinyl}-3,4-dihydrocarbostyril]: 330 nM; for `O=C(c1ccc(OCCCO)cc1)N1CCC(N2C(=O)CCc3ccccc32)CC1` [Example 32, 1-{1-[4-(3-Hydroxypropoxy)benzoyl]-4-piperidinyl}-3,4-dihydrocarbostyril]: 460 nM.
Regarding `CC(=O)OCCCOc1ccc(C(=O)N2CCC(N3C(=O)CCc4ccccc43)CC2)cc1` [Example 33, 1-{1-[4-(3-Acetoxypropoxy)benzoyl]-4-piperidinyl}-3,4-dihydrocarbostyril], the 50% inhibitory concentration (IC50) was determined as 450 nM.
For the molecule `NC(=O)OCCCOc1ccc(C(=O)N2CCC(N3C(=O)CCc4ccccc43)CC2)cc1` [Example 35, 1-{1-[4-(3-Carbamoyloxypropoxy)benzoyl]-4-piperidinyl}-3,4-dihydrocarbostyril], the IC50 was determined as 150 nM.

The record behind these values is patent US5436254A, “Carbostyril derivatives” (Otsuka Pharmaceutical Company, Ltd., priority 1989, dated 1995).
